Reference: article PMC11249626, “Fluorophore-Labeled Pyrrolones Targeting the Intracellular Allosteric Binding Site of the Chemokine Receptor CCR1” (ACS Pharmacology & Translational Science, 2024)

What was measured:
[1] = biological target: T1, human chemokine receptor CCR1 (Homo sapiens, UniProt P32246); assay: Cellular NanoBiT β-arrestin recruitment assay; type: cell-based
T1 construct: expressed in transfected cells; host or cells: HEK293T, transient
T1 sequence (P32246 1-355): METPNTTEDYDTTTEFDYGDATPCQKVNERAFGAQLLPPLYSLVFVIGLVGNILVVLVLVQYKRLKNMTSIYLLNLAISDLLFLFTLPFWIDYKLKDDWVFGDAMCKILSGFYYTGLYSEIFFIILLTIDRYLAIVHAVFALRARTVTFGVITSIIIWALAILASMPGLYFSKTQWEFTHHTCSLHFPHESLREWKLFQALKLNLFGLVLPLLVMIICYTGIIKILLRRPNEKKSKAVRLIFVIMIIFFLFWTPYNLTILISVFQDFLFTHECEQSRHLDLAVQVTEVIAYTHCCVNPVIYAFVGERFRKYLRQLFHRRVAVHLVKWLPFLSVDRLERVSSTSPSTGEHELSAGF
Description: CCR1 and CCR2 was monitored using a nanoluciferase complementation -based assay (NanoBiT, Promega). 17-19 5 x 10^6 HEK293T cells were plated in 10 cm dishes and cultured for 24 h before transfection with vectors encoding for the human chemokine receptor CCR1 or CCR2 C-terminally fused with SmBiT and β-arrestin 2 N-terminally fused with LgBiT. 24 h after transfection cells were harvested, distributed into white 96-well plates (5 × 10^4 cells per well) and incubated for 1 h at 37 °C with compound 23 at concentrations ranging from 10 nM to 10 µM. The endogenous chemokine ligand CCL5 (3 nM, for CCR1) or CCL2 (10 nM, for CCR2) was then added, and luminescence generated upon nanoluciferase complementation in the presence of coelenterazine H was measured with a Mithras LB940 luminometer (Berthold Technologies) for 20 min. […]
(§1) Finally, the top 5% of the identified hits were subsequently docked to a homology model of CCR1 (vide infra). After visual examination of the obtained binding modes 24 hit compounds were identified for further investigation .
(§2) Molecular docking: For the docking studies in the course of our virtual screening campaign, the CCR1 protein was […]
27, 28 CCR1 structure was optimized using the Quickprep and structure preparation wizard in MOE 24 using CHARMM27 forcefield. The protein was saved in mol2 format and loaded in GOLD.25, 26 The amino acids defining the IABS were listed in a text file to define the docking cavity. 50 GA runs were performed for docking CCR2-RA-[R] (4-[R]) and SN_12 (43), with the generated solutions clustered based on their RMSD with the threshold set to 0.75 Å using the complete linkage method. Docking runs were performed using ChemScore. Flexibility of amino acids Lys63ICL1, Arg1313.50, Leu2406.36 and Arg3078.49 was taken in consideration in the docking runs, with conformational sampling of their side chains being done by the rotamer libraries implemented in GOLD.25, 26 For the docking studies with our ligand-linker conjugates (Figure S1), molecular ligand structures were geometry optimized as neutral molecules by means of Avogadro (Version 1.2.0)29 using the Universal Force Field (UFF) and the Steepest Decent Algorithm until convergence (ΔE = 0).
CCR113 was used for docking. The compounds were docked by means of AutoDock Vina 1.1.2.30, 31 An exhaustiveness value of 8 and a search space of 22 x 22 x 22 Å³ was applied around the unliganded intracellular allosteric binding site of CCR1. Twenty docking poses were generated for each ligand and inspected manually and according to the docking score.

[2] = biological target: T1, human chemokine receptor CCR1; assay: Cellular NanoBiT miniGi recruitment assay; type: cell-based; details: in the presence of CCL5 (3 nM)
Description: Technologies) for 20 min.
Cellular NanoBiT miniGi recruitment assay s: Chemokine-induced Gi recruitment to the chemokine receptor CCR1 was monitored using a nanoluciferase complementation -based assay (NanoBiT, Promega). 20 5 x 10^6 HEK293T cells were plated in 10 cm dishes and cultured for 24 h before transfection with vectors encoding for the human chemokine receptor CCR1 C-terminally fused with SmBiT and miniGi (mG, engineered GTPase domain of Gα subunit) N-terminally fused with LgBiT. 24 h after transfection cells were harvested, distributed into white 96 -well plates (5 × 10^4 cells per well) and incubated for 1 h at 37 °C with compound 23 at concentrations ranging from 10 nM to 100 µM. The endogenous chemokine ligand CCL5 (3 nM, for CCR1) was then added, and luminescence generated upon nanoluciferase complementation in the presence of coelenterazine H was measured with a Mithras LB940 luminometer (Berthold Technologies) for 20 min. […]
as §1, §2
27, 28 CCR1 structure was optimized using the Quickprep and structure preparation wizard in MOE 24 using CHARMM27 forcefield. The protein was saved in mol2 format and loaded in GOLD.25, 26 The amino acids defining the IABS were listed in a text file to define the docking cavity. 50 GA runs were performed for docking CCR2-RA-[R] (4-[R]) and SN_12 (43), with the generated solutions clustered based on their RMSD with the threshold set to 0.75 Å using the complete linkage method. Docking runs were performed using ChemScore. […]

SMILES: O=C(C1=C(O)C(=O)N(CCc2ccc(O)cc2)C1c1ccc(F)cc1)c1ccccc1 (racemic) [compound 23]
- IC50 ([1]; absence of agonist, read-out: IC50 (CCR1), basal β-arrestin recruitment): 6 µM
- IC50 ([1]; absence of agonist, read-out: pIC50(CCR1), basal β-arrestin recruitment (converted)): 6.17 µM
- CCR1 over CCR2 selectivity, β-arrestin recruitment ([1]; cellular NanoBiT assays): > 10 fold
- IC50 ([1]; in the presence of CCL5 (3 nM), HEK293T cells, read-out: IC50 (CCR1), β-arrestin recruitment): 14.2 µM
- IC50 ([2]; read-out: IC50, miniGi recruitment): 68.9 µM
- IC50 ([2]; read-out: pIC50, miniGi recruitment (converted)): 67.6 µM
